Experimental data reported in publication PMC4832243, “Discovery of Potent VEGFR-2 Inhibitors based on Furopyrimidine and Thienopyrimidne Scaffolds as Cancer Targeting Agents” (Scientific Reports, 2016).

Assays:
NCI-H460 = test: NCI 60 cell line panel (SRB), NCI-H460; format: cell-based; conditions: Homo sapiens; NCI-H460, Non-Small Cell Lung Cancer; single dose of 10 μM; read-out: Cell Growth Percent
RPMI-8226 = test: NCI 60 cell line panel (SRB), RPMI-8226; format: cell-based; conditions: Homo sapiens; RPMI-8226, Leukemia; single dose of 10 μM; read-out: Cell Growth Percent
SF-295 = test: NCI 60 cell line panel (SRB), SF-295; format: cell-based; conditions: Homo sapiens; SF-295, CNS Cancer; single dose of 10 μM; read-out: Cell Growth Percent
MDA-MB-435 = test: NCI 60 cell line panel (SRB), MDA-MB-435; format: cell-based; conditions: Homo sapiens; MDA-MB-435, Melanoma; single dose of 10 μM; read-out: Cell Growth Percent
SK-MEL-2 = test: NCI 60 cell line panel (SRB), SK-MEL-2; format: cell-based; conditions: Homo sapiens; SK-MEL-2, Melanoma; single dose of 10 μM; read-out: Cell Growth Percent
SF-268 = test: NCI 60 cell line panel (SRB), SF-268; format: cell-based; conditions: Homo sapiens; SF-268, CNS Cancer; single dose of 10 μM; read-out: Cell Growth Percent
MCF7 = test: NCI 60 cell line panel (SRB), MCF7; format: cell-based; conditions: Homo sapiens; MCF7, Breast Cancer; single dose of 10 μM; read-out: Cell Growth Percent
VEGFR-2 (KDR) = target: T1, VEGFR-2 (KDR) (Homo sapiens, UniProt P35968); test: In vitro VEGFR-2 tyrosine kinase activity (Kinase-Glo Plus luminescence, BPS Bioscience); format: biochemical; conditions: for inhibition at 10 µM: single dose concentration of 10 μM
T1 construct: purchased BPS Bioscience 40301
T1 sequence (P35968 20-1356): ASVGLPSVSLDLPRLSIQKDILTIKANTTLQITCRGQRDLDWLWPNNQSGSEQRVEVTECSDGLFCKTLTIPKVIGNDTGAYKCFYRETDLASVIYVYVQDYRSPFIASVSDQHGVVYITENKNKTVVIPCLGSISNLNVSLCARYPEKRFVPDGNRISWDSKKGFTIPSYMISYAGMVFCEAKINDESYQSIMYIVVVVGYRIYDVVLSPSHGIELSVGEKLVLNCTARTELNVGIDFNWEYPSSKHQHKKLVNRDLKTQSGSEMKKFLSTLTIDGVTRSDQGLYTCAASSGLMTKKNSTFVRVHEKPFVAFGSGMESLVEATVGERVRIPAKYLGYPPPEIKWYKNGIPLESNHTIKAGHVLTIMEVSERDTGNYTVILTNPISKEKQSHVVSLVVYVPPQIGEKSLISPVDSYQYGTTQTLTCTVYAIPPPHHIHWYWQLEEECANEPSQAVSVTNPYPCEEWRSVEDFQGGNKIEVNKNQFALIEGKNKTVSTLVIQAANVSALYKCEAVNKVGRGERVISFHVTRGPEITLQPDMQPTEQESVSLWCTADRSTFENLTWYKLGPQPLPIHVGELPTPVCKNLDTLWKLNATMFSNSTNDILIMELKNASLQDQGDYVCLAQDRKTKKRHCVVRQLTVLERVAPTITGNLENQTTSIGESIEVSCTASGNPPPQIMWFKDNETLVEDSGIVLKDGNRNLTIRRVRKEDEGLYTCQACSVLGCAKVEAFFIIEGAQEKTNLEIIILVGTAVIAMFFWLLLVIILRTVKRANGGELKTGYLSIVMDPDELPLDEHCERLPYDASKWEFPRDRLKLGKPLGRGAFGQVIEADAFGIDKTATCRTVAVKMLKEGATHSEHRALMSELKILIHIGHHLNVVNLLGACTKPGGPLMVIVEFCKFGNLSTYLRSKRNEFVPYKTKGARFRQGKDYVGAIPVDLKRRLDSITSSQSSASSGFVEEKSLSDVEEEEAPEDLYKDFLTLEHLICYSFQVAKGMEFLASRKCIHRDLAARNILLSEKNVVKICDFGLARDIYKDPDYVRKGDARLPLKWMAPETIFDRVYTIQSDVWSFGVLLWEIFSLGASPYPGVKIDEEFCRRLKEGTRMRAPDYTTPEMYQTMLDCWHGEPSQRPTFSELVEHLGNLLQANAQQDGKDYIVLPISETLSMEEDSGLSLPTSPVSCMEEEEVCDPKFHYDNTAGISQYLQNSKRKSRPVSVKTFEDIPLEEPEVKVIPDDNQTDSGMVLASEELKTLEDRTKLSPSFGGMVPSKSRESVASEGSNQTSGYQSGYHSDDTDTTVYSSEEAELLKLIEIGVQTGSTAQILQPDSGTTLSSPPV

HL-60(TB) = test: NCI 60 cell line panel (SRB), HL-60(TB); format: cell-based; conditions: Homo sapiens, Leukemia, single dose of 10 μM, read-out: Cell Growth Percent
OVCAR-4 = test: NCI 60 cell line panel (SRB), OVCAR-4; format: cell-based; conditions: Homo sapiens; OVCAR-4, Ovarian Cancer; single dose of 10 μM; read-out: Cell Growth Percent
OVCAR-8 = test: NCI 60 cell line panel (SRB), OVCAR-8; format: cell-based; conditions: Homo sapiens; OVCAR-8, Ovarian Cancer; single dose of 10 μM; read-out: Cell Growth Percent
HS 578T = test: NCI 60 cell line panel (SRB), HS 578T; format: cell-based; conditions: Homo sapiens, Breast Cancer, single dose of 10 μM, read-out: Cell Growth Percent
HT29 = test: NCI 60 cell line panel (SRB), HT29; format: cell-based; conditions: Homo sapiens, HT-29; HT29, Colon Cancer; single dose of 10 μM; read-out: Cell Growth Percent
786-0 = test: NCI 60 cell line panel (SRB), 786-0; format: cell-based; conditions: Homo sapiens; 786-0, Renal Cancer; single dose of 10 μM; read-out: Cell Growth Percent
EKVX = test: NCI 60 cell line panel (SRB), EKVX; format: cell-based; conditions: Homo sapiens, Non-Small Cell Lung Cancer, single dose of 10 μM, read-out: Cell Growth Percent
UACC-257 = test: NCI 60 cell line panel (SRB), UACC-257; format: cell-based; conditions: Homo sapiens; UACC-257, Melanoma; single dose of 10 μM; read-out: Cell Growth Percent
NCI-H226 = test: NCI 60 cell line panel (SRB), NCI-H226; format: cell-based; conditions: Homo sapiens; NCI-H226, Non-Small Cell Lung Cancer; single dose of 10 μM; read-out: Cell Growth Percent
SK-MEL-5 = test: NCI 60 cell line panel (SRB), SK-MEL-5; format: cell-based; conditions: Homo sapiens; SK-MEL-5, Melanoma; single dose of 10 μM; read-out: Cell Growth Percent
K-562 = test: NCI 60 cell line panel (SRB), K-562; format: cell-based; conditions: Homo sapiens, K562; K-562, Leukemia; single dose of 10 μM; read-out: Cell Growth Percent
PC-3 = test: NCI 60 cell line panel (SRB), PC-3; format: cell-based; conditions: Homo sapiens; PC-3, Prostate Cancer; single dose of 10 μM; read-out: Cell Growth Percent
ACHN = test: NCI 60 cell line panel (SRB), ACHN; format: cell-based; conditions: Homo sapiens, Renal Cancer, single dose of 10 μM, read-out: Cell Growth Percent
DU-145 = test: NCI 60 cell line panel (SRB), DU-145; format: cell-based; conditions: Homo sapiens; DU-145, Prostate Cancer; single dose of 10 μM; read-out: Cell Growth Percent
SN12C = test: NCI 60 cell line panel (SRB), SN12C; format: cell-based; conditions: Homo sapiens, Renal Cancer, single dose of 10 μM, read-out: Cell Growth Percent
T-47D = test: NCI 60 cell line panel (SRB), T-47D; format: cell-based; conditions: Homo sapiens, T47D, Breast Cancer, single dose of 10 μM, read-out: Cell Growth Percent
MDA-MB-468 = test: NCI 60 cell line panel (SRB), MDA-MB-468; format: cell-based; conditions: Homo sapiens; MDA-MB-468, Breast Cancer; single dose of 10 μM; read-out: Cell Growth Percent
A498 = test: NCI 60 cell line panel (SRB), A498; format: cell-based; conditions: Homo sapiens; A498, Renal Cancer; single dose of 10 μM; read-out: Cell Growth Percent
HOP-92 = test: NCI 60 cell line panel (SRB), HOP-92; format: cell-based; conditions: Homo sapiens; HOP-92, Non-Small Cell Lung Cancer; single dose of 10 μM; read-out: Cell Growth Percent
NCI-H322M = test: NCI 60 cell line panel (SRB), NCI-H322M; format: cell-based; conditions: Homo sapiens, Non-Small Cell Lung Cancer, single dose of 10 μM, read-out: Cell Growth Percent
UACC-62 = test: NCI 60 cell line panel (SRB), UACC-62; format: cell-based; conditions: Homo sapiens; UACC-62, Melanoma; single dose of 10 μM; read-out: Cell Growth Percent
SR = test: NCI 60 cell line panel (SRB), SR; format: cell-based; conditions: Homo sapiens, Leukemia, single dose of 10 μM, read-out: Cell Growth Percent
NCI-H522 = test: NCI 60 cell line panel (SRB), NCI-H522; format: cell-based; conditions: Homo sapiens; NCI-H522, Non-Small Cell Lung Cancer; single dose of 10 μM; read-out: Cell Growth Percent
OVCAR-5 = test: NCI 60 cell line panel (SRB), OVCAR-5; format: cell-based; conditions: Homo sapiens; OVCAR-5, Ovarian Cancer; single dose of 10 μM; read-out: Cell Growth Percent
CAKI-1 = test: NCI 60 cell line panel (SRB), CAKI-1; format: cell-based; conditions: Homo sapiens; CAKI-1, Renal Cancer; single dose of 10 μM; read-out: Cell Growth Percent
NCI/ADR-RES = test: NCI 60 cell line panel (SRB), NCI/ADR-RES; format: cell-based; conditions: Homo sapiens, Ovarian Cancer, single dose of 10 μM, read-out: Cell Growth Percent

| Compound | activity at 10 µM (NCI-H460) | activity at 10 µM (RPMI-8226) | activity at 10 µM (SF-295) | activity at 10 µM (MDA-MB-435) | activity at 10 µM (SK-MEL-2) | activity at 10 µM (SF-268) | activity at 10 µM (MCF7) | inhibition at 10 µM (VEGFR-2 (KDR)) | activity at 10 µM (HL-60(TB)) | activity at 10 µM (OVCAR-4) | activity at 10 µM (OVCAR-8) | activity at 10 µM (HS 578T) | activity at 10 µM (HT29) | activity at 10 µM (786-0) | activity at 10 µM (EKVX) | activity at 10 µM (UACC-257) | activity at 10 µM (NCI-H226) | activity at 10 µM (SK-MEL-5) | activity at 10 µM (K-562) | activity at 10 µM (PC-3) | other results |
| --- | --- | --- | --- | --- | --- | --- | --- | --- | --- | --- | --- | --- | --- | --- | --- | --- | --- | --- | --- | --- | --- |
| O=C(Nc1ccc(Nc2ncnc3sc4c(c23)CCCC4)cc1)Nc1cccc(Cl)c1 [Compound 20d] | 110% | 106% | 96.8% | 104% | 116% | 106% | 91.9% | 19% | 98.9% | 101% | 112% | 103% | 87.8% | 103% | 96.9% | 93.8% | 103% | 98.1% | 110% | 96% | activity at 10 µM (ACHN): 99.7%; activity at 10 µM (DU-145): 110%; activity at 10 µM (SN12C): 102%; activity at 10 µM (T-47D): 100%; activity at 10 µM (MDA-MB-468): 110%; activity at 10 µM (A498): 86.7%; activity at 10 µM (HOP-92): 102%; activity at 10 µM (NCI-H322M): 104%; activity at 10 µM (UACC-62): 106%; activity at 10 µM (SR): 102%; activity at 10 µM (NCI-H522): 92.1%; activity at 10 µM (OVCAR-5): 108%; activity at 10 µM (CAKI-1): 97.2%; activity at 10 µM (NCI/ADR-RES): 113% |
| O=C(Nc1ccccc1)Nc1ccc(Oc2ncnc3sc4c(c23)CCCC4)cc1 [Compound 21a] | 70.7% | 50.5% | 64.9% | 19.2% | 87.6% | 76.3% | 44.5% | > 70% | 102% | 55.1% | 93.5% | 73.6% | 74.3% | 84.8% | 60.8% | 90.4% | 66.6% | 67.9% | 26.1% | 33.4% | IC50 (VEGFR-2 (KDR); 5 concentrations 1 nM - 10 μM): 0.454 µM; activity at 10 µM (ACHN): 78.7%; activity at 10 µM (DU-145): 86.1%; activity at 10 µM (SN12C): 83.3%; activity at 10 µM (T-47D): 37.9%; activity at 10 µM (MDA-MB-468): 53.6%; activity at 10 µM (A498): 56.7%; activity at 10 µM (HOP-92): 78.4%; activity at 10 µM (NCI-H322M): 99.7%; activity at 10 µM (UACC-62): 66.5%; activity at 10 µM (SR): 24.3%; activity at 10 µM (NCI-H522): 15.6%; activity at 10 µM (OVCAR-5): 107%; activity at 10 µM (CAKI-1): 83.4%; activity at 10 µM (NCI/ADR-RES): 63.2% |
